The values that follow come from patent EP0978517A2, “Triazolopurines, process for their preparation and their use as medicaments” (Boehringer Ingelheim Pharma KG, priority 1996, dated 1998).

The target in assay [1] is T1, human A3-adenosine receptor (Homo sapiens, UniProt P0DMS8).
T1 sequence (P0DMS8 1-318): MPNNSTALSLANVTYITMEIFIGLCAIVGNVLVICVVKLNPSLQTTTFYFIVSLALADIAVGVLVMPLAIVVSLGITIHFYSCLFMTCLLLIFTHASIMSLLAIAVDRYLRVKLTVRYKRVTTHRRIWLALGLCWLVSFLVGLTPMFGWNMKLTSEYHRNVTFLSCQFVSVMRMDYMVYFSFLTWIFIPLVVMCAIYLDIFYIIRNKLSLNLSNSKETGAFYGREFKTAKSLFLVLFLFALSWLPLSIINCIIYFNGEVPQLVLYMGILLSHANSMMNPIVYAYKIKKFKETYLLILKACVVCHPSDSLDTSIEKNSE
Nature of the assay: A3 receptor binding, determined in analogy to Salvatore et al. (Table 21). The note with it: Rezeptorbindungswerte, Tabelle 21, read-out: KiA3. From the text:
Die in Tabelle 21 zusammengefassten A3-Rezeptorbindungswerte wurden in Analogie zu Salvatore et al. "Molecular cloning and characterization of the human A3-adenosine receptor" (Proc. Natl. Acad. Sci. USA 90, 10365-10369, 1993) ermittelt.
Die nachfolgende Tabelle enthält KiA3 (human) Rezeptorbindungswerte. Tabelle 21

Assay [2] has as its target T2, human A1 adenosine Receptor (Homo sapiens, UniProt P30542).
T2 sequence (P30542 1-326): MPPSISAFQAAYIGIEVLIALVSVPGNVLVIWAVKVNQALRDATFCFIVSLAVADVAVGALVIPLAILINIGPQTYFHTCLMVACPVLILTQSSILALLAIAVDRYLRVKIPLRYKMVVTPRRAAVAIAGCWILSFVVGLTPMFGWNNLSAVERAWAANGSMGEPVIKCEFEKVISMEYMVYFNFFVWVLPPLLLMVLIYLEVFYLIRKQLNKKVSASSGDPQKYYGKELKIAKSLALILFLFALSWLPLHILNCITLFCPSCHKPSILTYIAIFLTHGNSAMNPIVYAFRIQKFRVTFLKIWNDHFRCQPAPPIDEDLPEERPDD
Nature of the assay: A1 receptor binding, determined in analogy to Ensinger et al. (Table 20). To be noted: Rezeptorbindungswerte, Tabelle 20, read-out: KiA1. From the text: Die ermittelten A1-Rezeptorbindungswerte wurden in Analogie zu Ensinger et al. in "Cloning and functional characterisation of human A1 adenosine Receptor - Biochemical and Biophysical Communications, Vol 187, No. 2, 919-926, 1992" bestimmt und sind in Tabelle 20 zusammengefaßt.
(§1) Die nachfolgende Tabelle enthält KiA1 (human) und KiA2 (Ratte) Rezeptorbindungswerte. Tabelle 20

Assay [3] has as its target A2-Rezeptor (Rattus norvegicus, UniProt P30543). The experiment in a line: A2 receptor binding (Table 20). The note with it: Ratte; Rezeptorbindungswerte, Tabelle 20; read-out: KiA2.
Excerpt: as §1

Chain of A2-Rezeptor (P30543 whole entry): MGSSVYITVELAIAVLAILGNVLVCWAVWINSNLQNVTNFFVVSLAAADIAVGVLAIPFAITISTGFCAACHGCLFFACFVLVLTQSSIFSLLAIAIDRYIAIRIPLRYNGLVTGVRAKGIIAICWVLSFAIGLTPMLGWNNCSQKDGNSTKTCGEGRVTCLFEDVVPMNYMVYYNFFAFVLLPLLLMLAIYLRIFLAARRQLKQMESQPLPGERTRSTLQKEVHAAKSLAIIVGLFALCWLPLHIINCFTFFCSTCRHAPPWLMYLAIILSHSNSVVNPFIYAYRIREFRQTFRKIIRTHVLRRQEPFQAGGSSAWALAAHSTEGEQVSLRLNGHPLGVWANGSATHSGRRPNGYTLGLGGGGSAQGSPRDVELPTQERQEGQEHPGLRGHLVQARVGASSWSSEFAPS

For the molecule `CCCn1c2nc[nH]c2c(=O)n2nc(Cc3ccccc3)nc12` [Beispiel 3], in assay [1], the Ki was found to be 4.7 nM. Same read-out and setting: the same measure for `CCCCn1c2nc[nH]c2c(=O)n2nc(Cc3ccccc3)nc12` [Beispiel 4]: 2.3 nM; for `CCCn1c2nc(CC)[nH]c2c(=O)n2nc(Cc3ccccc3)nc12` [Beispiel 6]: 2 nM. With `CCCc1nc2c([nH]1)c(=O)n1nc(Cc3ccccc3)nc1n2CCC` [Beispiel 7], the Ki was found to be 8.1 nM in assay [2] and 158 nM in assay [3]. As to `Cn1c2nc(C3CCCC3)[nH]c2c(=O)n2nc(Cc3ccccc3)nc12` [Beispiel 8], the figures for the Ki in assay [2] and in assay [3] were 1.9 nM and 363 nM, respectively. Regarding `CCn1c2nc(C3CCCC3)[nH]c2c(=O)n2nc(Cc3ccccc3)nc12` [Beispiel 9], the figures for the Ki in assay [2] and in assay [3] were 1.4 nM and 422 nM, respectively. For the molecule `CCCn1c2nc(C3CCCC3)[nH]c2c(=O)n2nc(Cc3ccccc3)nc12` [Beispiel 10], the figures for the Ki in assay [2] and in assay [3] were 1.7 nM and 730 nM, respectively. The matching figures for `CCCCn1c2nc(C3CCCC3)[nH]c2c(=O)n2nc(Cc3ccccc3)nc12` [Beispiel 11]: 8.3 nM and 345 nM. For `O=c1c2[nH]c(C3CCCC3)nc2n(Cc2ccccc2)c2nc(Cc3ccccc3)nn12` [Beispiel 12], the Ki in assay [1] was 20 nM. With `CCCn1c2nc(N3CCOCC3)[nH]c2c(=O)n2nc(Cc3ccccc3)nc12` [Beispiel 13], the Ki in assay [2] worked out at 5.2 nM; in assay [3] it was 82 nM. For the molecule `O=c1c2[nH]cnc2[nH]c2nc(C3CCCC3)nn12` [Beispiel 19], the Ki in assay [1] turned out to be 3.8 nM.

As for `CCCn1c2nc(CC)[nH]c2c(=O)n2nc(C3CCCC3)nc12` [Beispiel 23], in assay [1], the Ki was found to be 2 nM. As for `CCCCCn1c2nc(C3CCCC3)[nH]c2c(=O)n2nc(Cc3ccccc3)nc12` [Beispiel 25], the Ki in assay [2] turned out to be 10.3 nM; in assay [3], 1230 nM; in assay [1], 26 nM. As for `CCn1c2nc(C3CCCC3)[nH]c2c(=O)n2ncnc12` [Beispiel 30], the Ki in assay [2] is 81.5 nM; in assay [3], 3290 nM.

As for `CCCc1nc2n(CCC)c3nc(C4CCCC4)[nH]c3c(=O)n2n1` [Beispiel 36], the Ki in assay [2] amounted to 5.8 nM; in assay [3], 731 nM.

In the case of `CCCn1c2nc(C3CCCC3)[nH]c2c(=O)n2nc(C(C)C)nc12` [Beispiel 37], the Ki in assay [2] came to 6.4 nM; in assay [3], 307 nM. Take `CCCCc1nc2n(CCC)c3nc(C4CCCC4)[nH]c3c(=O)n2n1` [Beispiel 38]: the Ki in assay [2] was determined as 6.4 nM; in assay [3], 532 nM; in assay [1] it was 22 nM. As for `CCCn1c2nc(C3CCCC3)[nH]c2c(=O)n2nc(C(C)(C)C)nc12` [Beispiel 39], the values for the Ki in assay [2] and in assay [3] were 6 nM and 539 nM, respectively. Taken in the same sequence, the figures for `CCCn1c2nc(C3CCCC3)[nH]c2c(=O)n2nc(-c3ccco3)nc12` [Beispiel 48] were 11.4 nM and 4460 nM. On to `CCCn1c2nc(N(C)C)[nH]c2c(=O)n2nc(Cc3ccccc3)nc12` [compound 65], for which the Ki in assay [1] was 3 nM. The same measure, in the same setting: under `CCn1c2nc(C(C)(C)C)[nH]c2c(=O)n2nc(Cc3ccccc3)nc12` [compound 68] stands 30 nM; under `CCc1nc2c([nH]1)c(=O)n1nc(CCc3ccccc3)nc1n2CC` [compound 78], 5.3 nM. The same measure, in the same setting: under `CCc1nc2c([nH]1)c(=O)n1nc(COc3ccc(OC)cc3)nc1n2CC` [compound 82] stands 25 nM.
